The experiment deals with NLRP3 inflammasome-induced IL-1β release from murine peritoneal macrophages (pMΦ). The experiment in a line: IL-1β release from primary resident peritoneal macrophages (ELISA). The class given is cell-based, mice. As to conditions: LPS + 3% DSS, z-YVAD-fmk 10 μM, K+ 130 mM, bafilomycin A1 10 nM, NAC 20 mM. As to the method: Primary resident peritoneal macrophages (pMΦ) of WT or Nlrp3−/− mice were generated as described elsewhere (Bauer et al. 2010). Briefly, mice were sacrificed under isoflurane anesthesia by cervical dislocation. Peritoneal lavage was then performed by exposing the parietal peritoneum and injecting intraperitoneally with a transpipette 10 ml of 2% FBS in PBS. The peritoneal lavage fluid was centrifuged and re-suspended at the desired concentration. The adherent pMΦ (F 4/80 positive cells) subset consists about 20% of the peritoneal lavage as observed by flow cytometer analysis. Cells were then plated into culture dishes overnight. Cells were washed, and adherent cells were used for cytokine assays. Where indicated, experiments were performed after four weeks of co-housing WT and NLRP3-deficient mice to neutralize the microbiota effect.
pMΦ were seeded into 96-well plates at a density of 2×10^5 cells per well. After LPS priming for 1 h, cells were stimulated with different activators for 24 h. Cell culture supernatant was used for ELISA (Biolegend, San Diego Calif., USA), which was performed according to the manufacturer's protocol.
In order to examine the effect of the apoptotic cell composition on inflammasome-induced IL-1β release, isolated macrophages were exposed to lipopolysaccharide (LPS) and DSS with or without earlier interaction with apoptotic cells for two hours.
Given the need for TLR triggering through NF-κB signaling, and the fact that apoptotic cells can inhibit NF-κB, and therefore inhibit […] secretion in the absence of inflammasome inhibition, a set of experiments was initiated to elucidate whether IL-1β secretion is inhibited both at NF-κB and NLRP3 levels by apoptotic cells. Resident peritoneal macrophages (pMΦ) were either incubated with apoptotic cells, washed, and primed with LPS following stimulation with various inflammasome inducers, or were first primed with LPS, allowing accumulation of de novo […] transcription and then treated with apoptotic cells and inducers.
A general note: In an ELISA, binding on a coated surface is turned into a signal by an enzyme label.
Take z-YVAD-fmk: the “DSS-mediated IL-1β release” value is on record as “almost complete inhibition”.
The value for `[Cl-].[K+]` [KCl] was “inhibited”; that for `CC(=O)N[C@@H](CS)C(=O)O` [N-acetyl-L-cysteine] was “significantly inhibited”.
As to `CO/C1=C\C(C)=C\[C@@H](C)[C@@H](O)[C@@H](C)C/C(C)=C/C=C/[C@H](OC)[C@@H]([C@@H](C)[C@@H](O)[C@H](C)[C@@]2(O)C[C@@H](O)[C@H](C)[C@@H](C(C)C)O2)OC1=O` [bafilomycin, bafilomycin A1], the “DSS-mediated IL-1β release” value was “inhibited”.

The record behind these values is US10927343B2, “Therapeutic apoptotic cell preparations, method for producing same and uses thereof” (ENLIVEX THERAPEUTICS LTD, priority 2012, dated 2021).
